Measurements: ChEMBL document CHEMBL1156967 (Bioorg Med Chem Lett, 2010)
pIC50: −log10 of the molar value.

Experiments:
[1] = target: Mitogen-activated protein kinase 14 (Homo sapiens, UniProt Q16539); experiment: Inhibition of p38alpha assessed as gamma-[33P]ATP incorporation by scintillation counting
[2] = target: Mitogen-activated protein kinase 11 (Homo sapiens, UniProt Q15759); experiment: Inhibition of p38beta assessed as gamma-[33P]ATP incorporation by scintillation counting
Rattus norvegicus [3] = experiment: Antiinflammatory activity in Lewis rat plasma assessed as reduction in LPS-stimulated TNFalpha accumulation at 5 mg/kg, ig administered 4 hrs before LPS challenge measured after […] by ELISA; assay type: functional; settings: po, route intragastric
Rattus norvegicus [4] = experiment: Antiinflammatory activity in Lewis rat assessed as reduction in LPS-stimulated TNFalpha accumulation at 1 mg/kg, ig administered 4 hrs before LPS challenge measured after […] by ELISA; assay type: functional; settings: po, route intragastric
Blood = experiment: Antiinflammatory activity against LPS-induced TNFalpha production in human whole blood treated 1 hr before LPS challenge measured after 4 hrs by ELISA; assay type: functional, tissue-based
[5] = Intrinsic clearance in human liver microsomes; assay type: ADME, Microsome
[6] = Half life in human liver microsomes; assay type: ADME, Microsome
hERG (KCNH2) = hERG (KCNH2) (Homo sapiens, UniProt Q12809); experiment: Displacement of dofetilide from human ERG at 10 uM; settings: probe dofetilide
Mus musculus = experiment: Antiarthritic activity against collagen-induced arthritis in DBA/1 mouse chronic CIA model assessed as incidence of arthritis at 30 mg/kg, po after 21 days; assay type: functional
[7] = Selectivity ratio of IC50 for p38 beta to IC50 for p38alpha
Rattus norvegicus [8] = experiment: Antiinflammatory activity in Lewis rat plasma assessed as reduction in LPS-stimulated TNFalpha accumulation at 20 mg/kg, ig administered 4 hrs before LPS challenge measured after […] by ELISA; assay type: functional; settings: po, route intragastric
[9] = Clearance in rat at 5 mg/kg, iv; assay type: ADME, organism-based; parameters: dose 5 mg/kg, route intravenous; settings: in vivo
[10] = Volume of distribution in rat at 5 mg/kg, iv; assay type: ADME, organism-based; parameters: dose 5 mg/kg, route intravenous; settings: in vivo
[11] = Half life in rat at 5 mg/kg, iv; assay type: ADME, organism-based; parameters: dose 5 mg/kg, route intravenous; settings: in vivo
[12] = Bioavailability in rat at 5 mg/kg, iv; assay type: ADME, organism-based; settings: in vivo
[13] = Clearance in dog at 2.5 mg/kg, iv; assay type: ADME, organism-based, Canis lupus familiaris; parameters: dose 2.5 mg/kg, route intravenous; settings: in vivo
[14] = Volume of distribution in dog at 2.5 mg/kg, iv; assay type: ADME, organism-based, Canis lupus familiaris; parameters: dose 2.5 mg/kg, route intravenous; settings: in vivo
[15] = Half life in dog at 2.5 mg/kg, iv; assay type: ADME, organism-based, Canis lupus familiaris; parameters: dose 2.5 mg/kg, route intravenous; settings: in vivo
[16] = Bioavailability in dog at 2.5 mg/kg, iv; assay type: ADME, organism-based, Canis lupus familiaris; settings: in vivo
[17] = target: Voltage-gated inwardly rectifying potassium channel KCNH2 (Homo sapiens, UniProt Q12809); experiment: Inhibition of human ERG by patch clamp technique
Chain of Voltage-gated inwardly rectifying potassium channel KCNH2 (Q12809 whole entry): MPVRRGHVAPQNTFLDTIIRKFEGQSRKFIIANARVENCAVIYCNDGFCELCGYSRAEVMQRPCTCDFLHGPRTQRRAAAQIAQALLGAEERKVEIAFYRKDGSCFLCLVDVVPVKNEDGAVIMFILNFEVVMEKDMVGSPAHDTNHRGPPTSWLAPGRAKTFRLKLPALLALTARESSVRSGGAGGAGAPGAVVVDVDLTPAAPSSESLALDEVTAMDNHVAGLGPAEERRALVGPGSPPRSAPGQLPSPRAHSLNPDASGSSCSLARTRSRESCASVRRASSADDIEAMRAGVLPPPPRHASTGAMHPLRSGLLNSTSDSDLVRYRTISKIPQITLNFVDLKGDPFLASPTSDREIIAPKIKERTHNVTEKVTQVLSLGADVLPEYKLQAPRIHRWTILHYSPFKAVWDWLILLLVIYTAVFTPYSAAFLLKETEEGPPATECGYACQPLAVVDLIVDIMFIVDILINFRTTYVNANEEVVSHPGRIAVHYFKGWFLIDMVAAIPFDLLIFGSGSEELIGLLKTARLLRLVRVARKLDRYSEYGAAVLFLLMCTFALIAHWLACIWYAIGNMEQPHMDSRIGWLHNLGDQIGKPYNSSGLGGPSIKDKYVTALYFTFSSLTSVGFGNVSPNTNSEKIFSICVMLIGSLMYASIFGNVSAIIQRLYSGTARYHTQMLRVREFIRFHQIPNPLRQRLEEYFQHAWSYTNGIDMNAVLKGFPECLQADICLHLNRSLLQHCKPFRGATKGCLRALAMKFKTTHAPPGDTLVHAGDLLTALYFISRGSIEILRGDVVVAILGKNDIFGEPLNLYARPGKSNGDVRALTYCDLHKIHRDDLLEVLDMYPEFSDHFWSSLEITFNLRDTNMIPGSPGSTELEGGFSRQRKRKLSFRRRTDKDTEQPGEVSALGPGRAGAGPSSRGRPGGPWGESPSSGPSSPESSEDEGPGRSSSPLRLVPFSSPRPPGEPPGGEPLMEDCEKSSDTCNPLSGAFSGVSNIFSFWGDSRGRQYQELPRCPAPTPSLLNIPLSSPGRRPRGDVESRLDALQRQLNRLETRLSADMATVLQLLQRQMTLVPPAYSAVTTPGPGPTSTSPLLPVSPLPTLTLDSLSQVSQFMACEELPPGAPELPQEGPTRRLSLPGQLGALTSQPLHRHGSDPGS

Chain of hERG (KCNH2) (Q12809 whole entry): as above
Chain of Mitogen-activated protein kinase 11 (Q15759 whole entry): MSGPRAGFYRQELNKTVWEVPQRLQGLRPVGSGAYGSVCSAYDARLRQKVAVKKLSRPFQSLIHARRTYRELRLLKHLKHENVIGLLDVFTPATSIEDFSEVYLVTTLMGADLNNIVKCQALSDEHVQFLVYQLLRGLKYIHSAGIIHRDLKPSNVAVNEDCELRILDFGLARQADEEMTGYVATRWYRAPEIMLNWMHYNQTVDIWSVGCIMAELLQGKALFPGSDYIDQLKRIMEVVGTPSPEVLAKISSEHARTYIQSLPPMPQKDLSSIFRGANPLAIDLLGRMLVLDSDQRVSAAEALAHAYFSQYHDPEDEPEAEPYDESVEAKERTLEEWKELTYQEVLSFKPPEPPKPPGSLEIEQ
Chain of Mitogen-activated protein kinase 14 (Q16539 whole entry): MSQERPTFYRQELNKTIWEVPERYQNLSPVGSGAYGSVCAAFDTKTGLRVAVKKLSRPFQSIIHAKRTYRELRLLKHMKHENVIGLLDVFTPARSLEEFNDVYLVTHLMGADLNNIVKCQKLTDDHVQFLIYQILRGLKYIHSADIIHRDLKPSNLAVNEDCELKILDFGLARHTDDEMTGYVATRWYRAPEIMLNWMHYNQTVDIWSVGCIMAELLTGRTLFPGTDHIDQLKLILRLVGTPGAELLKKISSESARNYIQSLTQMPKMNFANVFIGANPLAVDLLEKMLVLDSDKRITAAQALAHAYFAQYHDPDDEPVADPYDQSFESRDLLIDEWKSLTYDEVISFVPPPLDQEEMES

SMILES	pIC50 [1]	pIC50 [2]	inhibition in vivo at 5 mg/kg (Rattus norvegicus [3]) [%]	other results
NS(=O)(=O)N1CCC(c2[nH]nc(-c3ccc(Cl)cc3)c2-c2ccncc2)CC1	7.85	5.78	68	
CC(C)(O)CN1CCC(c2[nH]nc(-c3ccc(Cl)cc3)c2-c2ccncn2)CC1	7.06	5.01	34	inhibition in vivo at 1 mg/kg (Rattus norvegicus [4]): 3%; pIC50 (Blood): 6.00
CC(C)(CO)N1CCC(c2[nH]nc(-c3ccc(Cl)cc3)c2-c2ccncn2)CC1	6.74	5.56	0	
Clc1ccc(-c2n[nH]c(C3CCN(C4CCOC4)CC3)c2-c2ccncn2)cc1 (centres undefined)	7.51	5.13	70	inhibition in vivo at 1 mg/kg (Rattus norvegicus [4]): 80%; pIC50 (Blood): 6.28; CLint scaled [5]: 16.3 mL/min/kg; half-life [6]: 61.3 min; inhibition at 10 µM (hERG (KCNH2)): 35%; Activity (Mus musculus): 50%
Fc1ccc(-c2n[nH]c(C3CCCNC3)c2-c2ccncc2)cc1 (centres undefined)	7.32	6.39		Ratio IC50 [7]: 6
Clc1ccc(-c2n[nH]c(C3CCN(Cc4ccncc4)CC3)c2-c2ccncn2)cc1	7.33	5.48	27	
COCCN1CCC(c2[nH]nc(-c3ccc(Cl)cc3)c2-c2ccncc2)CC1	7.15	5.17	84	CLint scaled [5]: 47.7 mL/min/kg; half-life [6]: 21.5 min; inhibition at 10 µM (hERG (KCNH2)): 74%; Activity (Mus musculus): 22%
OCCN1CCC(c2[nH]nc(-c3ccc(Cl)cc3)c2-c2ccncc2)CC1	7.39	5.47	88	CLint scaled [5]: 32 mL/min/kg; half-life [6]: 30.5 min; inhibition at 10 µM (hERG (KCNH2)): 61%; Activity (Mus musculus): 70%
COCC(=O)N1CCC(c2[nH]nc(-c3ccc(Cl)cc3)c2-c2ccncc2)CC1		5.46	90	
CN1CCC(c2[nH]nc(-c3ccc(F)cc3)c2-c2ccncc2)CC1	7.26	5.71	77	Ratio IC50 [7]: 35
CN1CCC(c2[nH]nc(-c3ccc(Cl)cc3)c2-c2ccncn2)CC1		5.63	63	inhibition in vivo at 1 mg/kg (Rattus norvegicus [4]): 36%; pIC50 (Blood): 6.10; CLint scaled [5]: 31.5 mL/min/kg; half-life [6]: 31.2 min; inhibition at 10 µM (hERG (KCNH2)): 51%; Activity (Mus musculus): 20%
Cc1cccc(-c2n[nH]c(C3CCN(C)CC3)c2-c2ccncc2)c1	7.17	5.63		inhibition in vivo at 20 mg/kg (Rattus norvegicus [8]): 81%
CN1CCC(c2[nH]nc(-c3cccc(C(F)(F)F)c3)c2-c2ccncc2)CC1	7.58	6.79	6	
CS(=O)(=O)N1CCC(c2[nH]nc(-c3ccc(Cl)cc3)c2-c2ccncn2)CC1	6.70	5.39	89	inhibition in vivo at 1 mg/kg (Rattus norvegicus [4]): 26%; pIC50 (Blood): < 5.30; CLint scaled [5]: 18.1 mL/min/kg; half-life [6]: 53.9 min; Activity (Mus musculus): 44%
CN1CCC(c2[nH]nc(-c3ccc(C(F)(F)F)cc3)c2-c2ccncc2)CC1	7.39	5.42	22	
O=C(CO)N1CCC(c2[nH]nc(-c3ccc(Cl)cc3)c2-c2ccncc2)CC1		5.75	85	CLint scaled [5]: 15.8 mL/min/kg; half-life [6]: 62 min; inhibition at 10 µM (hERG (KCNH2)): 24%; Activity (Mus musculus): 60%
CN(C)C(=O)N1CCC(c2[nH]nc(-c3ccc(Cl)cc3)c2-c2ccncn2)CC1	7.06	5.46	88	inhibition in vivo at 1 mg/kg (Rattus norvegicus [4]): 53%

SMILES	pIC50 [1]	pIC50 [2]	inhibition in vivo at 5 mg/kg (Rattus norvegicus [3]) [%]	other results
CN(C)CC(=O)N1CCC(c2[nH]nc(-c3ccc(Cl)cc3)c2-c2ccncc2)CC1	7.10	5.17	85	
Fc1ccc(-c2n[nH]c(C3CCNCC3)c2-c2ccncc2)cc1	7.60	6.29	2	
CN1CCC(c2[nH]nc(-c3ccc(Cl)cc3)c2-c2ccncc2)CC1	7.50	5.57	71	Ratio IC50 [7]: 84
CN1CCC(c2[nH]nc(-c3cccc(Cl)c3)c2-c2ccncc2)CC1		5.98	27	
Cc1ccc(-c2n[nH]c(C3CCN(C)CC3)c2-c2ccncc2)cc1	7.00	5.51		inhibition in vivo at 20 mg/kg (Rattus norvegicus [8]): 44%
O[C@H]1CCC[C@@H]1N1CCC(c2[nH]nc(-c3ccc(Cl)cc3)c2-c2ccncn2)CC1	7.72	5.47	70	inhibition in vivo at 1 mg/kg (Rattus norvegicus [4]): 40%
O=C(CO)N1CCC(c2n[nH]c(-c3ccc(Cl)cc3)c2-c2ccncn2)CC1 [SD-0006]		5.46	87	inhibition in vivo at 1 mg/kg (Rattus norvegicus [4]): 81%; CLint scaled [5]: < 8 mL/min/kg; half-life [6]: > 120 min; inhibition at 10 µM (hERG (KCNH2)): 16%; Activity (Mus musculus): 16%; clearance [9]: 4.96 mL/min/kg; Vd [10]: 1.74 L/kg; half-life [11]: 243 min; bioavailability [12]: > 80%; clearance [13]: 2.92 mL/min/kg; Vd [14]: 1.07 L/kg; half-life [15]: 269 min; bioavailability [16]: > 80%
COCCCN1CCC(c2[nH]nc(-c3ccc(Cl)cc3)c2-c2ccncc2)CC1	6.97	5.18		
COCC(=O)N1CCC(c2[nH]nc(-c3ccc(Cl)cc3)c2-c2ccncn2)CC1		5.49	88	inhibition in vivo at 1 mg/kg (Rattus norvegicus [4]): 71%
CC(=O)N1CCC(c2[nH]nc(-c3ccc(F)cc3)c2-c2ccncc2)CC1		5.56	41	pIC50 [17]: 6.10
OCCN1CCC(c2[nH]nc(-c3ccc(Cl)cc3)c2-c2ccncn2)CC1	7.46	5.60	88	inhibition in vivo at 1 mg/kg (Rattus norvegicus [4]): 80%; pIC50 (Blood): 6.31; CLint scaled [5]: 21.4 mL/min/kg; half-life [6]: 47.6 min; inhibition at 10 µM (hERG (KCNH2)): 46%; Activity (Mus musculus): 61%
CC(=O)N1CCC(c2[nH]nc(-c3ccc(Cl)cc3)c2-c2ccncn2)CC1	6.82	5.43	90	inhibition in vivo at 1 mg/kg (Rattus norvegicus [4]): 72%; CLint scaled [5]: 9.5 mL/min/kg; half-life [6]: 102 min; Activity (Mus musculus): 50%
Clc1ccc(-c2n[nH]c(C3CCN(C4CCOCC4)CC3)c2-c2ccncn2)cc1	6.69	5.02	46	pIC50 (Blood): < 5.30
CN1CCCC(c2[nH]nc(-c3ccc(F)cc3)c2-c2ccncc2)C1 (centres undefined)	7.05	5.60	63	Ratio IC50 [7]: 28
CS(=O)(=O)N1CCC(c2[nH]nc(-c3ccc(Cl)cc3)c2-c2ccncc2)CC1	7.15	5.45	75	
CC(=O)N1CCC(c2[nH]nc(-c3ccc(Cl)cc3)c2-c2ccncc2)CC1	7.17	5.50	66	CLint scaled [5]: 22.5 mL/min/kg; half-life [6]: 43.3 min; Activity (Mus musculus): 50%
O=C(O)CN1CCC(c2[nH]nc(-c3ccc(Cl)cc3)c2-c2ccncc2)CC1	6.90	5.36	20	
